Measurements from US6680025B2, “Device and method for photoactivation” (Cerus Corporation, priority 1989, dated 2004).

Key:
tRNA = assay: Photobinding of BIOMIP to tRNA, biotin detection (BluGene); type: binding; settings: 100 μg/ml, irradiated 30 minutes CE-III; no signal from unirradiated controls
Experimental: This example describes photobinding of ^3H-AMIP, ^3H-AMDMIP and BIOMIP to RNA. A tRNA stock was prepared at a concentration of 765 μg/ml in 1×TE/10 mM NaCl. Appropriate amounts of each compound were prepared in separate reaction vessels such that upon addition of 200 μl of the tRNA solution (153 μg) the final concentration of each compound was 100 μg/ml. […] were used in the experiment; the BIOMIP used was unlabelled. Each reaction vessel was then irradiated for 30 minutes at 25° C. in the CE-III device. Identical unirradiated reaction mixtures were used as controls for each compound. Following irradiation, each mixture was extracted with CHCl3 (4×200 μl ) then precipitated (×2). The pellets were resuspended in 1×TE and the binding levels determined as follows. For the two labelled compounds (^3H-AMDMIP and ^3H-AMIP), the nucleic acid concentration was determined optically and radioactivity measured by scintillation counting of aliquots of the stock solutions. Binding of the compounds was then calculated to be as follows:
To determine if binding of BIOMIP to tRNA has occurred, it was necessary to use a non-radioactive format which detected the biotin moiety on the compound. A commercial kit (“BluGene”; BRL) was used for this purpose. The kit instructions were followed for detection of both the control DNA (supplied with the kit) and BIOMIP treated tRNA. […]

[1] = tested on: PCR product (primer pair SK-38/39 analogs); assay: Post-amplification sterilization with AMT; type: biochemical; settings: AMT 100 μg/ml, irradiated CE-III; 10^4 to 10^10 copies carried over; 30 cycles
Experimental: A PCR sample is prepared for amplification with the following changes. Instead of AMDMIP, AMT is added prior to amplification at a concentration of 100 μg/ml. Instead of primer pair SK-38/39, the biotinylated analogs, in which biotin has been appended to the 5′ end of one or both primers via an intervening tetraethylenglycol bridge (ester linkage to the biotin), are used. Following 30 cycles of PCR, the reaction vessel is exposed to 300-400 nm light on the CE-III device. Following irradiation, the PCR reaction vessel is opened and the PCR product removed. Free primer is then removed by spinning the PCR reaction mix through a Centricon 100 (Amicon Division, W R Grace & Co., Danvers, Mass.). […] After immobilization, the PCR product is detected with a commercially available biotin detection systems (BluGene Detection System; catalog #8179 SA; BRL). […]
PCR reagents are added and the samples reamplified for 30 cycles, and α-^32P-dCTP is present during the amplification. Following PCR, the reamplified samples are analyzed by denaturing PAGE as described above.
In a third method, a solution of AMT (100 μg/ml) is prepared and irradiated for 15 minutes on the CE-III device. […] The mix is then amplified for 30 cycles in the presence of α-^32P-dCTP, then analyzed by PAGE, as above. […]

Molecule	binding to tRNA by biotin detection (tRNA)	reamplification of treated PCR product [1]
5-N-(N,N′-Dimethyl-(6-{biotinamido}-hexanoate)-1,6-hexanediamine])-methyl-isopsoralen [BIOMIP]	covalently bound to the tRNA	
Cc1oc2c(C)c3oc(=O)cc(C)c3cc2c1CN [AMT, 4′-aminomethyl-4,5′,8-trimethylpsoralen]		does not reamplify
